Data on nine molecules can be found in patent publication US7264808B2, “Synthetic peptide for neurological disorders” (priority 2000, dated 2007).

Some results are limits rather than exact numbers.

The conditions of data set [1]: cited from earlier work.
Another data set relates to NGF, NT-3 and bFGF. The following applies: animals; brain areas associated with memory loss; cited from earlier work.
The subject of a further data set is Anti-V-NGF. Kind of data set: ELISA titer of specimens with Anti-V-NGF. In kind it is binding. The following applies: in comparison to Anti-H-NGF. As for the experimental part:
(§1) Enzyme-Linked Immunosorbent Assay (ELISA): The binding affinity of Anti-ADESH made against ADESH consisting of ten amino acids (AD-10), to various specimens known to contain NGF, such as venoms, body fluids, saliva, serum, urine etc. was studied by ELISA. The ELISA binding of Anti-AD-10 was compared to Anti-NGF made against cobra venom. ELISA tests were performed in 96 well microtiter plate. The wells of the plate were coated with one concentration of antigen, diluted in PBS each well receiving 100 μL. The plate was incubated at room temperature (RT) for 16 to 18 hours after which it was three times (3×) with PBS. The wells of the plate were blocked with 0.25 ml/well of 3% Teleostean gelatin from cold water fish (Sigma) for ½ hour at RT. Anti-AD-10 and Anti-NGFs were diluted threefold in gelatin were added to the appropriate wells of ELISA plate, including positive and negative controls. The plate was incubated at 37° C. for 1 to 1.5 hours. After washing 3X times horseradish peroxidase conjugated with IgG made in goat (Sigma) was added and incubated for 1 hour. Finally, the plate was washed and reacted with O-Phenylenediamine Dihydrochloride (OPD) for color development. The test was after ½ hour for ELISA titers.
On the technique in general: In an ELISA, binding on a coated surface is turned into a signal by an enzyme label.

The test system of data set [2] is PC12 cells. Kind of data set: Neurite outgrowth on PC12 cells. The format is cell-based, rat. The note with it: for Neurites on PC12: concentration producing neurite outgrowth, read after 72 hours. The procedure:
The trypsin digested fragments in various concentrations were tested for neurite out growth on PC12 cells. Tissue culture plate having 24 wells were seeded with 10^5 PC12 cells in serum free Dulbeco Modified Eagle's medium (DMEM). The results were read after 72 hours for neurite outgrowth. The fraction showing the most neurite outgrowth at the lowest concentration was sequenced for its amino acids composition. Sequencing was contracted out to the Protein Core Laboratory of Baylor College of Medicine, Houston, Tex.

Another data set deals with Anti-AD-10. Kind of data set: ELISA titer of specimens with Anti-AD-10. The format is binding, mice. The note with it: for ELISA titer Anti-AD-10: Table II, specimen coated. The procedure:
Adult Balb/C mice were used for immunization. The mice were used in compliance with the US Public Health Service Policy on humane care and use of animals. First injection consisted of the mixture 100 μg of each version of ADESH in 0.1 ml mixed with equal volume of Freund's complete adjuvant/mouse. The subsequent injections consisted of the mixture 100 μg of ADESH and equal volume of incomplete Freund's adjuvant/mouse. The mice were injected intramuscularly (IM) six times two weeks apart. At the end of the immunization the mice were bled through the ophthalmic veins and serum was separated.
as §1

The subject of data set [3] is PC12 cells. The data set is described as follows: Toxicity to PC12 cells. The note with it: toxic concentration on PC12 cells. In kind it is cell-based, rat.

With `O=C(CCn1cnc2c(=O)[nH]cnc21)Nc1ccc(C(=O)[O-])cc1.[K+]` [AIT-082], the “absorption and activity after oral administration” value in data set [1] was “rapidly absorbed and active after oral administration”. The “activation of genes producing neurotrophic factors in brain” value with NGF, NT-3 and bFGF is listed as “activate multiple genes in animals to produce three different neurotrophic factors”.

Turning to “ADESH: name of the inventive peptides; in b30 the synthetic ADESH consisting of ten amino acids (AD-10) (NLGEHPVCDS)”, the “reaction with Anti-V-NGF (in words)” value with Anti-V-NGF is given as “react poorly”. In the data set with PC12 cells [2], the “neurite outgrowth on PC12 cells (in words)” value (shortened to “neurite outgrowth”) is “equally active as the fragment of the native NGF”.

With “H-NGF saliva: NGF of human origin isolated from saliva”, the “ELISA titer Anti-AD-10” value in the data set on Anti-AD-10 is given as 2700.

Consider “H-NGF serum: NGF of human origin isolated from serum”, for which the “ELISA titer Anti-AD-10” value with Anti-AD-10 is reported as 2700.

“H-NGF urine: NGF of human origin isolated from urine”: the “ELISA titer Anti-AD-10” value in the data set with Anti-AD-10 was 2700.

For “N L G E H (NLGEH; SYNTHESIZED. CORRESPONDS TO FRAGMENT 7-11 OF SEQ. ID. NO. 1.) [AD-5, ID; NO: 4, first five amino acids]”, the “Toxicity to PC12” value with PC12 cells [3] is greater than 100 µg. The “ELISA titer Anti-AD-10” value with Anti-AD-10 is given as 600. For the same molecule, in the data set on PC12 cells [2], the “neurite outgrowth” value is listed as “biologically active in producing neurite outgrowth” and the “Neurites on PC12” value was determined as 2 µg.

On to “N L G E H P V C D S (NLGEHPVCDS; SYNTHESIZED. SIMILAR TO FRAGMENT 7-16 OF SEQ. ID. NO. 1.) [AD-10]”, for which the “Toxicity to PC12” value in the data set on PC12 cells [3] was greater than 100 µg. Moreover, in the data set on Anti-AD-10, the “ELISA titer Anti-AD-10” value is recorded as 2700. Further, in the data set on PC12 cells [2], the “neurite outgrowth” value was “biologically active in producing neurite outgrowth” and the “Neurites on PC12” value was 1 µg.

In the case of “N L G E H P V C D S T D T W V (NLGEHPVCDSTDTWV; SYNTHESIZED. SIMILAR TO FRAGMENT 7-21 OF SEQ ID NO 1 ABOVE.) [AD-15, ID; NO: 2, first fifteen amino acids]”, in the data set with PC12 cells [3], the “Toxicity to PC12” value is greater than 100 µg. For the same molecule, in the data set with Anti-AD-10, the “ELISA titer Anti-AD-10” value was determined as 1800. Further, in the data set with PC12 cells [2], the “neurite outgrowth” value is “biologically active in producing neurite outgrowth” and the “Neurites on PC12” value was determined as 1 µg.

B1: V-NGF (protein)
chain: EDHPVHNLGEHSVCDSVSAWVTKTTATDIKGNTVTVMENVNLDNKVYKEYFFETKCKNPNPEPSGCRGIDSSHWNSYCTETDTFIKALTMEGNQASWRFIRIETACVCVITKKKGN
Take B1: the “Toxicity to PC12” value with PC12 cells [3] turned out to be 5 µg. Also, in the data set on Anti-AD-10, the “reaction with Anti-AD-10 / Anti-ADESH (in words)” value is “react” and the “ELISA titer Anti-AD-10” value came to 900. Further, the “Neurites on PC12” value with PC12 cells [2] worked out at 0.005 µg.
